This is an account of results in PMC7406860, “Redox Imbalance and Oxidative DNA Damage During Isoniazid Treatment of HIV-Associated Tuberculosis: A Clinical and Translational Pharmacokinetic Study” (Frontiers in Pharmacology, 2020).

The subject of data set [1] is HepG2 cells. Kind of data set: CometChip imaging of cellular DNA damage. Format: cell-based, human. The note with it: HepG2, 10 µM, 1 week; as compared to isoniazid. The protocol: (§1) The human liver carcinoma cell line, HepG2, is highly differentiated and is often used to screen the cytotoxicity potential of new chemical entities early in drug development ([Gerets et al., 2012]). HepG2 cells were cultured in Dulbecco’s modified Eagle’s medium (DMEM) supplemented with 10% fetal bovine serum (FBS), 100 U/ml penicillin, 100 μg/ml streptomycin, and 2mM L-glutamine, unless otherwise stated. Cells were continuously incubated at 37°C in a humidified 5% CO2/95% air environment and plated in a 12-well plate at 4x10^5 cells/well, over a duration of 24 h prior to compound exposure. Compound stocks dissolved in water were freshly made each exposure day. Cellular supernatant was replaced with 2 ml of culture media containing 10 µM of compound and left to incubate until 90% confluency was reached. Cell passages were conducted every 3 days under continual exposure to the designated compound for the indicated time period. Cellular supernatant was collected at each passage, clarified, aliquoted, and stored at -80°C for future analysis. Treated cells and supernatants were then examined for markers of cytotoxicity, mitochondrial toxicity, and oxidative DNA damage as described below.
Cells treated for 1 week with 10 µM of compound were plated onto a CometChip (Trevigen) at 2x10^5 cells/ml in a single cell suspension ([Ge et al., 2014]). Cells were incubated on the chip for 60 min at 37°C. The plate was then gently washed with PBS and coated with 1% low melting agarose. After the agarose was solidified by cooling at 4°C, the plate was washed with pre-chilled non-activated alkaline lysis buffer (2.5 M NaCl, […] Na2EDTA, 10mM Tris, pH 10). The chip was lysed overnight at 4°C by submerging the chip in the alkaline lysis buffer containing 1% Triton-X. The plate was then washed with PBS and placed in an electrophoresis chamber filled with pre-chilled alkaline electrophoresis buffer (2mM Na2 EDTA, 300 mM NaOH). Following a 40 min incubation at 4°C to allow for alkaline unwinding, electrophoresis was carried out at 80 volts for 30 min at 4°C. […]

The nature of data set [2]: Clinical parent-metabolite pharmacokinetic study, plasma exposures after oral isoniazid. Format: in vivo, human (TB patients). The note with it: for AUC(0-t): human. The protocol:
The parent-metabolite clinical pharmacokinetic study was approved by the Institutional Review Board of Rutgers University, Newark (protocol #20170001150). We performed intensive pharmacokinetic sampling for drug and metabolite concentrations in 10 TB patients (4 latent infection patients and 6 active TB patients) treated with isoniazid, in order to identify the relevant metabolite concentrations for subsequent pre-clinical experiments. After an overnight fast, patients were dosed with oral isoniazid (300 mg). A pre-dose blood draw was performed, with additional blood draws at 1, 2, 4, 6, and 8 h after dosing. Following centrifugation, plasma samples were stored at -80C until shipment to Alturas Analytics (Moscow, ID) for analysis. […] Noncompartmental pharmacokinetic analysis was performed to determine area under the concentration-versus-time curve (AUC), extrapolated over a 24-h dosing interval according to the slope defined in the elimination phase.

Data set [3] relates to HepG2 cells. As to the kind of experiment: 8-OHdG in cellular supernatant (competition ELISA). Format: cell-based, human. The note with it: HepG2, 10 µM, 28 days exposure. The protocol:
as §1
Determination of 8-OHdG content in cellular supernatant was assed using an in-house competition ELISA. […] Absorbance at 405 nm was then measured on a Synergy H1 Hybrid Multi-Mode Reader (BioTek).
Background: ELISA stands for enzyme-linked immunosorbent assay.

Data set [4] relates to HepG2 cells. As to the kind of experiment: ATP production (Mitochondrial ToxGlo Assay). The data set is classed as cell-based, human. The note with it: HepG2, 10 µM, 28 days of treatment. How it is done:
The human liver carcinoma cell line, HepG2, is highly differentiated and is often used to screen the cytotoxicity potential of new chemical entities early in drug development ([Gerets et al., 2012]). HepG2 cells were cultured in Dulbecco’s modified Eagle’s medium (DMEM) supplemented with 10% fetal bovine serum (FBS), 100 U/ml penicillin, 100 μg/ml streptomycin, and 2mM L-glutamine, unless otherwise stated. Cells were continuously incubated at 37°C in a humidified 5% CO2/95% air environment and plated in a 12-well plate at 4x10^5 cells/well, over a duration of 24 h prior to compound exposure. Compound stocks dissolved in water were freshly made each exposure day. […]
Mitochondrial toxicity analysis was assayed using the Mitochondrial ToxGlo Assay (Promega, Madison, WI) following the manufacturer’s instructions. […] Following a 24-h incubation with compound, cytotoxicity was evaluated by the addition of a fluorogenic peptide substrate, bis-AAF-R110, to the cell supernatant for 30 min at 37°C. […] After the cells were allowed to incubate for 30 min at 37°C, fluorescence intensity was measured at 485nmEx/525nmEm. […] Cell lysis mixture was transferred to a 96-well flat solid white bottom plate and luminescence intensity was measured. Assays of fluorescence and luminescence activity were performed with a Synergy H1 Hybrid Multi-Mode Reader (BioTek, Winooski, VT).

Data set [5] deals with HepG2 cells. Kind of data set: Mitochondrial membrane integrity (TMRM). The data set is classed as cell-based, human. The note with it: HepG2, 10 µM, 28 days of exposure. The protocol:
as §1, with “Treated cells and supernatants were then examined for markers of cytotoxicity, mitochondrial toxicity, and oxidative DNA damage as described below.” left out
To assess mitochondrial membrane integrity, black 96-well polystyrene clear bottom plates were coated with 50 µg/ml of poly-d-lysine for 1 h at 37°C. […] Following three washes with PBS, fluorescent intensity at 488nmEx/570nmEm was measured on a Synergy H1 Hybrid Multi-Mode Reader (BioTek).

Data set [6] deals with HepG2 cells. As to the kind of experiment: Free thiol availability assay (ThiolTracker Violet), glutathione depletion. The data set is classed as cell-based, human. The note with it: HepG2, 10 µM, 28-day exposure period. The protocol: as §1, with “Cellular supernatant was collected at each passage, clarified, aliquoted, and stored at -80°C for future analysis. Treated cells and supernatants were then examined for markers of cytotoxicity, mitochondrial toxicity, and oxidative DNA damage as described below.” left out
By serving as targets of ROS, thiols provide the cellular defense system against oxidative stress. […] Cellular glutathione depletion was quantified in a free thiol availability assay ([Mandavilli and Janes, 2010]). […] Following a 30 min incubation at 37°C, cells were washed three times with D-PBS +C/M. Fluorescent intensity at 404nmEx/526nmEm was measured on a Synergy H1 Hybrid Multi-Mode Reader (BioTek).

For data set [7], the system named is HepG2 cells. As to the kind of experiment: Immunofluorescence for γ-H2AX. The data set is classed as cell-based, human. The note with it: HepG2, 10 µM, 1-week exposure period; compared among the four compounds. The protocol:
as §1
H2Ax is a core histone protein found in the nucleosome, and the phosphorylation of H2Ax is a marker of DNA damage caused by ROS. […]

The nature of data set [8]: Linear regression of urine oxidative DNA damage (8-OHdG) on isoniazid pharmacokinetic exposures in HIV/TB patients. Format: in vivo, human (HIV/TB patients, Botswana). The source says:
We conducted a prospective cohort study of isoniazid pharmacokinetics among HIV/TB patients at 22 public clinics and Princess Marina Hospital in Gaborone, Botswana. The study population has been previously described ([Vinnard et al., 2017]). Eligibility criteria included citizens of Botswana, HIV infected adults (21 years of age or older) naïve to ART therapy, and newly diagnosed with pulmonary TB initiated on standard first-line TB regimens at weight-based dosing bands recommended in accordance with WHO guidelines. The study visit occurred between 5 and 28 days after initiation of first-line TB therapy that included isoniazid, prior to initiation of ART therapy.
After an overnight fast, the anti-TB drugs were directly administered. Blood samples (10 ml) were drawn at 0, 0.3, 0.9, 2.2, 4.5, and 8 h post-dosing, based on optimal sampling theory to estimate isoniazid pharmacokinetic parameters. Plasma isoniazid concentrations were measured with liquid chromatography-tandem mass spectrometry (LC-MS/MS) methods as previously described. The peak plasma concentration (Cmax) was obtained directly from the concentration-versus-time data), model-predicted isoniazid concentrations were used to estimate the area under the concentration-versus-time curve during a 24-h interval (AUC0-24). A spot urine sample (approximately 50 ml) was collected 4 h following anti-TB drug dosing and frozen at -80C until analysis. We measured urinary concentrations of 8-OHdG, a marker of oxidative DNA damage that is stable in cryopreserved urine samples, normalized to urine creatinine. The DNA Damage Competitive ELISA kit (ThermoFisher Scientific) was performed using a 1:4 dilution of urine-to-assay buffer. The manufacturer’s instructions were followed with one modification to the protocol. Antigen binding was performed overnight at 4°C with shaking in lieu of a 2-h incubation at room temperature. Each assay was performed in triplicate. Optical absorption was assessed using a Synergy H1 Hybrid Multimode Reader (BioTek). […]

In data set [9] the test system is HepG2 cells. Kind of data set: Cytotoxicity (bis-AAF-R110 substrate, Mitochondrial ToxGlo Assay), long-term exposure. Format: cell-based, human. The note with it: HepG2, 10 µM, up to 28 days exposure.
Setting [10] is: 10 isoniazid-treated patients, oral isoniazid 300 mg, noncompartmental, extrapolated over 24-h dosing interval.

Like-named read-outs stand apart in the source and are kept apart here.

`CC(=O)NN` [Acetylhydrazine]: the “DNA damage by CometChip microscopy” value in data set [1] is given as “greater levels of DNA damage”. Further, the “Observed median (range) of plasma AUC0-24” value in data set [2] (setting [10]) was 66.6 (43.2, 198.0) uM*hr.
For `CC(=O)NNC(=O)c1ccncc1` [Acetylisoniazid], the “DNA damage by CometChip microscopy” value in [1] was “greater levels of DNA damage”. The AUC(0-t) in data set [2] (in vivo, po, 300 mg) was determined as 158 µM·h.
For the molecule `NN` [Hydrazine], the “8-OhDG levels in cell supernatant” value in data set [3] was “highest increase”. The “Cellular ATP production impairment” value in [4] is “greatest impairment”. For the same molecule, the “TMRM depletion (mitochondrial membrane integrity)” value in [5] is on record as “greatest depletion”. Also, in data set [1], the “DNA damage by CometChip microscopy” value was “greater levels of DNA damage”. Moreover, the “Thiol depletion (free thiol availability)” value in [6] is listed as “greatest”. In data set [2] (setting [10]), the “Observed median (range) of plasma AUC0-24” value is on record as 14.5 (3.0, 27.8) uM*hr. The “γ-H2AX levels (double-stranded DNA breaks)” value in data set [7] is on record as “greatest”.
As for `NNC(=O)c1ccncc1` [Isoniazid], the “Unadjusted regression coefficient (95% CI), isoniazid log AUC0-24 vs urine oxidative DNA damage” value in data set [8] (HIV/TB patients, first-line TB therapy) was 0.474 (-0.272, 1.221). Further, the “Unadjusted regression coefficient (95% CI), isoniazid Cmax (mg/L) vs urine oxidative DNA damage” value in [8] (HIV/TB patients, first-line TB therapy, urine 8-OHdG normalized to creatinine) is given as 0.153 (-0.060, 0.366). Besides, the “Adjusted regression coefficient (95% CI), isoniazid Cmax (mg/L) vs urine oxidative DNA damage” value in data set [8] (adjusted for body weight, creatinine clearance, GSTA2 genotype) was 0.241 (0.020, 0.462). Moreover, the AUC(0-t) in data set [2] (plasma, 10 isoniazid-treated patients, oral isoniazid 300 mg, noncompartmental, extrapolated over 24-h dosing interval, read-out: Observed median (range) of plasma AUC0-24) is 60.5 µM·h. In addition, in data set [9], the Overall cytotoxicity entry is “no appreciable cytotoxicity”.
